Test results reported in ChEMBL document CHEMBL2331210, “New 2-benzylsulfanyl-nicotinic acid based 1,3,4-oxadiazoles: their synthesis and biological evaluation” (2013).
In brackets after ≈: the same amount, converted by molar mass.

Key:
Assay type in all cases: functional
Aspergillus niger = assay: Antimicrobial activity against Aspergillus niger MTCC 282 assessed as growth inhibition measured after overnight incubation by broth dilution method
Streptococcus pyogenes = assay: Antimicrobial activity against Streptococcus pyogenes MTCC 442 assessed as growth inhibition measured after overnight incubation by broth dilution method
Aspergillus clavatus = assay: Antimicrobial activity against Aspergillus clavatus MTCC 1323 assessed as growth inhibition measured after overnight incubation by broth dilution method
[1] = system: Mycobacterium tuberculosis; assay: Antitubercular activity against Mycobacterium tuberculosis H37Rv assessed as growth inhibition after 12 to 28 days by L.J. agar MIC method; details: for MIC: Mycobacterium tuberculosis, H37Rv
Escherichia coli = assay: Antimicrobial activity against Escherichia coli MTCC 443 assessed as growth inhibition measured after overnight incubation by broth dilution method
Staphylococcus aureus = assay: Antimicrobial activity against Staphylococcus aureus MTCC 96 assessed as growth inhibition measured after overnight incubation by broth dilution method
Pseudomonas aeruginosa = assay: Antimicrobial activity against Pseudomonas aeruginosa MTCC 2488 assessed as growth inhibition measured after overnight incubation by broth dilution method
Candida albicans = assay: Antimicrobial activity against Candida albicans MTCC 227 assessed as growth inhibition measured after overnight incubation by broth dilution method

Compound | MIC (Aspergillus niger) | MIC (Streptococcus pyogenes) | MIC (Aspergillus clavatus) | growth inhibition (GI) [1] | MIC [1] | MIC (Escherichia coli) | MIC (Staphylococcus aureus) | MIC (Pseudomonas aeruginosa) | MIC (Candida albicans)
c1ccc(CSc2ncccc2-c2nnc(SCC3CO3)o2)cc1 (stereo not drawn) | 1000 µg/mL (≈ 2800 µM) | 250 µg/mL (≈ 699 µM) | 1000 µg/mL (≈ 2800 µM) | 97% | 500 µg/mL (≈ 1400 µM) | 62.5 µg/mL (≈ 175 µM) | 62.5 µg/mL (≈ 175 µM) | 125 µg/mL (≈ 350 µM) | 500 µg/mL (≈ 1400 µM)
CC1(C)S[C@@H]2[C@H](NC(=O)[C@H](N)c3ccccc3)C(=O)N2[C@H]1C(=O)O [AMPICILLIN] | – | 100 µg/mL (≈ 286 µM) | – | – | – | 100 µg/mL (≈ 286 µM) | 250 µg/mL (≈ 715 µM) | 100 µg/mL (≈ 286 µM) | –
COC1=CC(=O)C[C@@H](C)[C@]12Oc1c(Cl)c(OC)cc(OC)c1C2=O [GRISEOFULVIN] | 100 µg/mL (≈ 283 µM) | – | 100 µg/mL (≈ 283 µM) | – | – | – | – | – | 500 µg/mL (≈ 1420 µM)
CO[C@H]1/C=C/O[C@@]2(C)Oc3c(C)c(O)c4c(O)c(c(/C=N/N5CCN(C)CC5)c(O)c4c3C2=O)NC(=O)/C(C)=C\C=C\[C@H](C)[C@H](O)[C@@H](C)[C@@H](O)[C@@H](C)[C@H](OC(C)=O)[C@@H]1C [RIFAMPIN] | – | – | – | 99% | 40 µg/mL (≈ 48.6 µM) | – | – | – | –
